The nature of series [1]: Particle size of unmilled (conventional, non-nanoparticulate) docetaxel. Type of series: physicochemical. The source says:
Unmilled trihydrate docetaxel has a mean particle size of 61,610 nm, with a D50 of 51,060 nm and a D90 of 119,690 nm.

Series [2] relates to microtubules. As to conditions: compared with docetaxel; cited from earlier work.
The test system of series [3] is COX-2 expression in human monocytes. As to conditions: human monocytes / human cells; cited from earlier work.
Series [4] has as its system plasma proteins, primarily albumin, α1-acid glycoproteins, and lipoproteins. The note with it: in vitro; cited from earlier work.
For series [5] the following is noted: cited from earlier work.
For series [6] the following is noted: cited from earlier work. The source holds these as a separate data set.
For series [7] the following is noted: phase I trial; cited from earlier work.
Series [8] has as its system COX-2 expression in murine cells. As to conditions: cited from earlier work.
For series [9], the system named is mice. As to conditions: mouse, in vivo, iv.
Method: The purpose of this experiment was to determine the maximum tolerated dose of a nanoparticulate docetaxel formulation.
To evaluate and characterize the acute toxicity of nanoparticulate docetaxel formulations, two nanoparticulate dispersions were utilized.
Both nanoparticulate docetaxel formulations were administered intravenously at various doses to mice.
The commercially available non-nanoparticulate docetaxel product, TAXOTERE®, was also tested in parallel with the nanoparticulate docetaxel formulations.
Where [10] appears, read: IV administration of a 100-mg/m^2 dose, SD=0.8.
Setting [11] is: intravenous doses of 70 mg/m^2 to 115 mg/m^2, 3-compartment model, TAXOTERE®.

Broadly, the AUC is the area under the concentration-time curve, a measure of exposure.

For `CC(=O)O[C@@]12CO[C@@H]1C[C@H](O)[C@@]1(C)C(=O)[C@H](O)C3=C(C)[C@@H](OC(=O)[C@H](O)[C@@H](NC(=O)OC(C)(C)C)c4ccccc4)C[C@@](O)([C@@H](OC(=O)c4ccccc4)[C@H]21)C3(C)C` [Unmilled trihydrate docetaxel, docetaxel], in series [1], the D50 is on record as 51,060 nm, the D90 was 119,690 nm and the mean particle size is 61,610 nm.

Consider `CC(=O)O[C@@]12CO[C@@H]1C[C@H](O)[C@@]1(C)C(=O)[C@H](O)C3=C(C)[C@@H](OC(=O)[C@H](O)[C@@H](NC(=O)OC(C)(C)C)c4ccccc4)C[C@@](O)([C@@H](OC(=O)c4ccccc4)[C@H]21)C3(C)C` [unmilled docetaxel (anhydrous), docetaxel], for which, in [1], the D50 is 175,530 nm, the D90 was 435,810 nm and the mean particle size is listed as 212,060 nm.

For the compound `CC(=O)OC12COC1CC(O)C1(C)C(=O)C(O)C3=C(C)C(OC(=O)C(O)C(NC(=O)OC(C)(C)C)c4ccccc4)CC(O)(C(OC(=O)C4CCCCC4)C21)C3(C)C` (stereo not drawn) [2-(hexahydro)docetaxel], the “inhibitory activity for microtubule disassembly” value in [2] is given as “strong inhibitory activity for microtubule disassembly equivalent to docetaxel”.

`CC(=O)O[C@@]12CO[C@@H]1C[C@H](O)[C@@]1(C)C(=O)[C@H](O)C3=C(C)[C@@H](OC(=O)[C@H](O)[C@@H](NC(=O)OC(C)(C)C)c4ccccc4)C[C@@](O)([C@@H](OC(=O)c4ccccc4)[C@H]21)C3(C)C` [docetaxel, (2R, 3S)-N-carboxy-3-phenylisoserine, N-tert-butyl ester, 13-ester with 5β-20-epoxy-1, 2α, 4, 7β, 10β, 13α-hexahydroxytax-11-en-9-one 4-acetate 2-benzoate, trihydrate]: the COX-2 expression induction result in series [3] was “induces COX-2 expression only in human monocytes”. For the same compound, the “bound to plasma proteins” value in series [4] was “approximately 94%”. For the same compound, the “solubility in water (in words)” value in series [5] is reported as “practically insoluble in water”. In series [6] (setting [10]), the exposure (AUC) is 4600 ng·h/mL and the “mean peak plasma level” value is 3.7 µg/mL. Further, the “steady-state volume of distribution (mean)” value in [6] (cancer patients, IV) is given as 113 L. In series [6] (setting [11]), the “mean population α half-life” value was 4 min, the “mean population β half-life” value was 36 min and the “mean population γ half-life” value was 666 min.

As for paclitaxel, the COX-2 expression induction result in series [3] and in [8] was “paclitaxel-induced COX-2 expression” each time. Also, the “pharmacokinetic profile (linearity)” value in series [7] is given as “nonlinear pharmacokinetics”.

Regarding `CC(=O)OC12COC1CC(O)C1(C)C(=O)C(O)C3=C(C)C(OC(=O)C(O)C(NC(=O)OC(C)(C)C)C4CCCCC4)CC(O)(C(OC(=O)c4ccccc4)C21)C3(C)C` (stereo not drawn) [3′-dephenyl-3′-cyclohexyldocetaxel], in series [2], the “inhibitory activity for microtubule disassembly” value is recorded as “strong inhibitory activity for microtubule disassembly equivalent to docetaxel”.

In the case of TAXOTERE®, the “maximum tolerated dose (MD)” value in series [9] came to 40 mg/kg.

(Values after patent US20060188566A1, “Nanoparticulate formulations of docetaxel and analogues thereof” (Elan Pharma International Limited, priority 2005, published 2006).)
